The results in this text go back to patent US9951035B2, “Selective matrix metalloproteinase inhibitors” (University of Notre Dame du Lac, priority 2014, dated 2018).

SMILES strings stand for the structures. Structures can show the parent of a compound that is named as a salt. Where two headings read alike, the source gives them in different places.

One assay concerns the target MMP-1 (Homo sapiens (Human), UniProt P03956). Kind of assay: Enzyme inhibition studies, MMP-1 catalytic domain. The class given is biochemical. The settings on record: at 100 μM; listed as ND-336, HCl salt.
For another assay, the target named is MMP-14 (Homo sapiens (Human), UniProt P50281). As to the kind of experiment: Enzyme inhibition studies, MMP-14 catalytic domain. The class given is biochemical.
The next assay concerns the target MMP-7 (Homo sapiens (Human), UniProt P09237). Kind of assay: Enzyme inhibition studies, MMP-7. The class given is biochemical. The settings on record: at 100 μM; listed as ND-336, HCl salt.
The target in the next assay is MMP-9 (Homo sapiens (Human), UniProt P14780). Kind of assay: Gel experiment, cleavage of tau by MMP-9. The class given is biochemical. The settings on record: in words.
The test system of another assay is diabetic (db/db) mice. As to the kind of experiment: Mouse diabetic wound model. The class given is in vivo. The settings on record: compared with ND-322; in words. An excerpt: The excisional mouse diabetic model validated by Sullivan et al. was used (Sullivan et al., Plast. Reconstr. Surg. (2004) 113, 953-960). The procedure for inflicting the wounds (single 8 mm wound on the dorsal region) was the same as described previously (Gooyit et al., ACS Chem. Biol. (2014) 9, 505-510). Wounds were photographed and covered with a sterile 3M Tegaderm™ transparent dressing (Butler Schein Animal Health, Inc.).
Female diabetic db/db (BKS.Cg-Dock7m+/+Leprdb/J, 8-weeks old, 38±3 g, n=24) were used for this study. Wounds were inflicted as described. Treatment with the MMP-2 inhibitor (50 μL of 5.0 mg/mL in 80% propylene glycol/20% DMSO, equivalent to 0.25 mg per wound) or vehicle (50 μL of 80% propylene glycol/20% DMSO) was started one day after wound infliction and continued once a day for 14 days. Digital photographs of wounds were taken on days 0, 7, 10, and 14 while the animals were under isoflurane anesthesia. On day 14, all mice were sacrificed. The wounds were excised, embedded in optimal cutting temperature (OCT) compound, and cryosectioned for histological evaluation.
Female diabetic db/db (BKS.Cg-Dock7m+/+Leprdb/J, 8-weeks old, 38±3 g, n=24) were used for this study. Wounds were inflicted and the following day the wounds were treated topically with MMP-8 (50 μL of 20 μg/mL MMP-8 in reaction buffer) or vehicle (50 μL reaction buffer) once a day for 14 days. The reaction buffer consisted of 50 mM Tris (pH 7.5), 10 mM CaCl2, 150 mM NaCl, and 0.05% (w/v) Brij-35. Digital photographs of the wounds were taken on days 0, 7, 10, and 14 while animals were under isoflurane anesthesia. On days 7 and 14, 12 mice (n=6 per group) were sacrificed. The wounds were excised, embedded in OCT compound, and cryosectioned for histological evaluation.
Photographs were taken using the procedure described by Gooyit et al. (ACS Chem Biol. (2014) 9, 505-510) at a fixed distance above the wounds and calibrated using a ruler included in the photographic frame. Image J 1.48c software was used to calculate wound areas. The percentage of wound closure was calculated from the wound area on the specified day relative to that on day 0.
Fresh wound tissue was harvested and embedded in OCT compound. Subsequently, the tissue was cryosectioned for H&E staining (12-μm thickness) and for apoptosis assays and in-situ zymography (8-μm thickness). Re-epithelialization was assessed on a Nikon Eclipse 90i Fluorescent Microscope (Nikon Instruments Inc.) as described earlier (Tkalcevic et al., Toxicol. Pathol. (2009) 37, 183-192). Apoptosis was evaluated using Derma TACS™ Apoptosis detection kits (Trevigen, Inc.) according to the manufacturer's instructions. The protocol of in-situ zymography was adapted from known methods. Gelatinolytic activity was detected in unfixed cryostat sections using DQ-gelatin as a substrate. DQ-gelatin was prepared at a concentration of 20 μg/mL in Tris-buffered saline (TBS) buffer (50 mM TBS pH 7.6, 1 mM CaCl2). A general MMP inhibitor in 0.5 mM EDTA was prepared as a negative control. Cryostat sections were air-dried for 10 min and incubated in the substrate mixture in the presence and absence of EDTA for 1 hr at room temperature. After the incubation period, the slides were washed in PBS (three times, 5 min each), fixed with 4% paraformaldehyde in PBS for 10 min in the dark, washed again with PBS (three times, 5 min each), incubated in the dark for 5 min with 300 nM DAPI solution, and mounted with anti-quenching mounting medium. Fluorescence of FITC was detected with excitation at 460-500 nm and emission at 512-542 nm. DAPI was detected with excitation at 340-380 nm and emission at 425-∞ nm.
Data are expressed as mean±SD. Wound healing between the groups in the studies were analyzed for statistical significance using a paired Student t-test, where p<0.05 was considered statistically significant.

Chain of MMP-1 (P03956 98-276): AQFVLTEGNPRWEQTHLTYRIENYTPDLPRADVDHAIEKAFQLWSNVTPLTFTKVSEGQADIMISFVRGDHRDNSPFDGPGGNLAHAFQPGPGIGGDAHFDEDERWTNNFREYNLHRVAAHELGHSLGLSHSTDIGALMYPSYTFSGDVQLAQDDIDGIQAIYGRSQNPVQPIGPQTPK
Chain of MMP-7 (P09237 95-267): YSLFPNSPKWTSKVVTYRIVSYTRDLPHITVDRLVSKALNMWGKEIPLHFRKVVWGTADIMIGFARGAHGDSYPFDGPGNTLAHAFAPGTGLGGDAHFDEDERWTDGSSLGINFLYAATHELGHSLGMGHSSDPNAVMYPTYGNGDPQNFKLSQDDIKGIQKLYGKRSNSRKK
Chain of MMP-9 (P14780 94-707, species assumed): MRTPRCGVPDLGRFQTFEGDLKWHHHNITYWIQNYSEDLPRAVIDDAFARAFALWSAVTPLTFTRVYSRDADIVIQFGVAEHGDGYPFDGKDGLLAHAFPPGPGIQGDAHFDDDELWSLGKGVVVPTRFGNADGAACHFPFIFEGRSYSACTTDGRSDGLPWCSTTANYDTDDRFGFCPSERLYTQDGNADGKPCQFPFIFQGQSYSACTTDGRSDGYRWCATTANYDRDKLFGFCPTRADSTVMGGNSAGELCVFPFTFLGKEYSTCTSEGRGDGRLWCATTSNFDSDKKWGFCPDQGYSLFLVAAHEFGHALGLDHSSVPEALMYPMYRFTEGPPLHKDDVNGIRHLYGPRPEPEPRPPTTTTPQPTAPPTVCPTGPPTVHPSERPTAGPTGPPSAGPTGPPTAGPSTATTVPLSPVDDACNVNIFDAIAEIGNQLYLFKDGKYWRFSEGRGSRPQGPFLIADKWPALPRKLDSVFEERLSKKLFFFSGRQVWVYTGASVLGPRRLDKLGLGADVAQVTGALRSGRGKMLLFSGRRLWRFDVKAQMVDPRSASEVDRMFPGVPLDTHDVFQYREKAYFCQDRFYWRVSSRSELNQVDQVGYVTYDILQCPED

Consider `NCc1ccc(Oc2ccc(S(=O)(=O)CC3CS3)cc2)cc1` (stereo not drawn) [Compound 5, (4-(4-((Thiiran-2-ylmethyl)sulfonyl)phenoxy)phenyl)methanamine HCl salt], for which the Inhibition result at MMP-1 was “Ki (MMP-1) 4% inhibition at 100 μM”; on MMP-7 it was “Ki (MMP-7) 1% inhibition at 100 μM”. Moreover, the Ki – broadly, the equilibrium dissociation constant of an inhibitor or competing ligand from its target – at MMP-14 came to 120 ± 10 nM; at MMP-14 (catalytic domain, slow-binding, Ki from koff/kon), 120 nM. Also, the “cleavage of tau in the presence of MMP-9” value at MMP-9 is recorded as “prevents cleavage of tau”. Moreover, in the assay on diabetic (db/db) mice, the “efficacy in mouse model of diabetic wound healing” value is on record as “significantly better efficacy than ND-322”.
